Measurements as given in patent US20180148514A1, “MULTIVALENT MEDITOPES, MEDITOPE-BINDING ANTIBODIES AND USES THEREOF” (City of Hope, priority 2014, published 2018).

What was measured:
CLL patients = conditions: cited from earlier work
MDA-MB-468 cells = assay: FACS binding of meditopes to MDA-MB-468 cells pre-treated with cetuximab or M425; type: cell-based; conditions: with or without cetuximab or M425 pre-treatment
pertuzumab I83E IgG = assay: SPR, meditope binding to immobilized pertuzumab I83E IgG; conditions: two fold dilutions from approximately 10 um to 156 nM
Method: The binding of a meditope to a meditope-enabled antibody containing the I83E modification was next examined in an in vitro binding study using surface plasmon resonance (SPR) and a meditope enabled antibody pertuzumab with the I83E modification. […] Concentrations were two fold dilutions from approximately 10 um to 156 nM. […] Further optimization of the experiment will be required due to the long off rate observed.

[1] = Phase I, 46 heavily pretreated CLL patients, single agent

Substance	objective responses (CLL patients; [1])	patients with decreased peripheral blood lymphocyte counts (CLL patients; [1]) [%]	patients with reduced enlarged lymph node size (CLL patients; [1]) [%]	MTD (maximum tolerated dose) (CLL patients; human, in vivo)	immunosuppression (CLL patients; human, in vivo)	adverse events (AEs) (CLL patients; majority of AEs)	binding to cells (FACS) (MDA-MB-468 cells)	Kd fit (pertuzumab I83E IgG)
lumiliximab: primatized anti-CD23 mAb with cynomolgus macaque variable regions and human constant regions (IgG1-κ)	no objective Complete Responses (CRs) or Partial Responses (PRs) were observed	91	52	not reached	not immunosuppressive	limited to grade 1/2	–	–
C-QFDLSTRRLK-C [cQFD]	–	–	–	–	–	–	bound to EGFR positive MD-MBA-468 cells only in the presence of cetuximab	no Kd could be fit to the data
